From ChEMBL document CHEMBL1201862, “PubChem BioAssay data set” (2004)
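Assay format: 96-well plates, 48-hour exposure. GI50 marks 50% less growth.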 The source made the active and inactive calls. Cut-off read from the data, not from the text of the source: active = GI50 up to about 1.1 µM and inactive = higher.

What was measured:
Assay in all cases: NCI tumour cell line growth inhibition, 48 h
[1] = system: HOP-92
[2] = system: M19-MEL
[3] = system: HCT-116
[4] = system: CCRF-CEM
[5] = system: HCT-15
[6] = system: KM12
[7] = system: SNB-78
[8] = system: A498
[9] = system: RXF 393
[10] = system: EKVX
[11] = system: NCI-H460
[12] = system: U-251
[13] = system: SK-OV-3
[14] = system: UACC-62
[15] = system: SN12C
[16] = system: LXFL 529
[17] = system: Malme-3M
[18] = system: SK-MEL-2
[19] = system: M14
[20] = system: OVCAR-3
[21] = system: SW-620
[22] = system: SR
[23] = system: SNB-19
[24] = system: NCI-H23
[25] = system: DMS-114
[26] = system: TK-10
[27] = system: HCC 2998
[28] = system: SF-268
[29] = system: 786-0
[30] = system: UO-31
[31] = system: IGROV-1
[32] = system: OVCAR-4
[33] = system: MOLT-4
[34] = system: SK-MEL-28
[35] = system: RPMI-8226
[36] = system: OVCAR-8
[37] = system: COLO 205
[38] = system: UACC-257
[39] = system: HL-60
[40] = system: A549
[41] = system: KM-20L2
[42] = system: HT-29
[43] = system: HOP-62
[44] = system: HOP-18
[45] = system: NCI-H522
[46] = system: K562
[47] = system: DLD-1
[48] = system: SF-295
[49] = system: SNB-75
[50] = system: LOX IMVI
[51] = system: NCI-H226
[52] = system: SF-539
[53] = system: ACHN
[54] = system: XF498
[55] = system: DMS-273
[56] = system: OVCAR-5
[57] = system: CAKI-1
[58] = system: SK-MEL-5

Measured: GI50

COc1ccc(C(=O)N/N=C/c2c(C)n(C)n(-c3ccccc3)c2=O)cc1
inactive: [1] > 100000 nM | [2] > 100000 nM | [3] > 100000 nM | [4] > 100000 nM | [6] > 100000 nM | [7] > 100000 nM | [8] > 100000 nM | [9] > 100000 nM | [10] > 100000 nM | [11] > 100000 nM | [12] > 100000 nM | [13] > 100000 nM | [14] > 100000 nM | [15] > 100000 nM | [16] > 100000 nM | [17] > 100000 nM | [18] > 100000 nM | [19] > 100000 nM | [20] > 100000 nM | [21] > 100000 nM | [22] > 100000 nM | [23] > 100000 nM | [24] > 100000 nM | [25] > 100000 nM | [26] > 100000 nM | [27] > 100000 nM | [28] > 100000 nM | [29] > 100000 nM | [30] > 100000 nM | [31] > 100000 nM | [32] > 100000 nM | [33] > 100000 nM | [34] > 100000 nM | [35] > 100000 nM | [36] > 100000 nM | [37] > 100000 nM | [38] > 100000 nM | [39] > 100000 nM | [40] > 100000 nM | [41] > 100000 nM | [42] > 100000 nM | [43] > 100000 nM | [44] > 100000 nM | [45] > 100000 nM | [46] > 100000 nM | [47] > 100000 nM | [48] > 100000 nM | [49] > 100000 nM | [50] > 100000 nM | [51] > 100000 nM | [52] > 100000 nM | [53] > 100000 nM | [54] > 100000 nM | [55] > 100000 nM
> 100000 nM: [5]

CCC12C=CCN3CCC4(C(=C(C(=O)OC)[C@@H]1O)Nc1ccccc14)C32 (stereo partly drawn)
active: [38] 1100 nM
1570 nM: [5]
inactive: [1] 1600 nM | [2] 1740 nM | [3] 1570 nM | [4] 1760 nM | [6] 1700 nM | [7] 2800 nM | [8] 1960 nM | [9] 1360 nM | [10] 1850 nM | [11] 1870 nM | [12] 2240 nM | [13] 2430 nM | [14] 1770 nM | [15] 2300 nM | [16] 1660 nM | [17] 1740 nM | [18] 1900 nM | [19] 2200 nM | [20] 1990 nM | [21] 1720 nM | [22] 1780 nM | [23] 1910 nM | [24] 1850 nM | [25] 1690 nM | [26] 2240 nM | [27] 1630 nM | [28] 2290 nM | [29] 1640 nM | [30] 2400 nM | [31] 1830 nM | [56] 2440 nM | [32] 2120 nM | [33] 2430 nM | [34] 1950 nM | [35] 2170 nM | [36] 2040 nM | [37] 1810 nM | [39] 2000 nM | [40] 2090 nM | [41] 1840 nM | [42] 1980 nM | [57] 2290 nM | [43] 2120 nM | [44] 1710 nM | [45] 1610 nM | [46] 2030 nM | [47] 1670 nM | [48] 2050 nM | [49] 1900 nM | [50] 1640 nM | [51] 1260 nM | [52] 2070 nM | [53] 1560 nM | [58] 1790 nM | [54] 1630 nM | [55] 1690 nM
